# Source: patent publication US4570005A, “Process for the preparation of 2-arylpropyl ether or thioether derivatives” (priority 1980, dated 1986)
# Read-outs that look alike come from different tables or passages of the source.
# Experiments:
# Test 8: Fish Toxicity = format: in vivo; conditions: carp, water; concentration at which 1/2 of the test fishes were killed within 48 hours; read-out: Fish Toxicity, TLm48
# Procedure: A water tank having a width of 60 cm, a length of 30 cm and a height of 40 cm was filled with water, and 10 yearling carps having a body length of about 5 cm were set free in the tank and adapted to the environment in the tank. A test compound was applied so that the concentration in water was 10, 1 or 0.1 ppm. After 48 hours, the numbers of killed and living carps were counted and the influences on the fishes were examined.
# [1] = Test 9: Toxicity Test (acute oral toxicity, mice); conditions: mouse, in vivo, po
# Procedure: A predetermined amount of a solution or suspension of a test compound in corn oil was orally administered to male mice having a body weight of 19 to 23 g (0.2 ml per 10 g of the body weight). After 7 days, the number of killed mice was counted and the influences on the mice were examined.
# green peach aphid = test: Test 5: Effect on Green Peach Aphid; format: in vivo; conditions: Myzus persicae; 100 ppm; mortality class; 24 hours; read-out: Insecticidal Activity
# Procedure: (§1) To a mixture of 20 parts of the compound of the present invention and 20 parts of Sorpol SM-200 (registered tradename for the product supplied by Toho Chemical Industrial Co., Ltd.) was added 60 parts of xylol, and the mixture was suffciently blended. The obtained emulsifiable concentrate was diluted at a predetermined concentration with distilled water, and the obtained dilution was used.
# Seedlings (having 3 to 4 leaves) of an eggplant grown on a pot were inoculated with green peach aphids and the insects were allowed to grow. The number of the insects was counted. A chemical dilution having a concentration of 100 ppm, prepared in the same manner as described in Test 1, was applied with a spray gun at a rate of 10 ml per pot. Then, the pot was placed in a glass green house. After 24 hours, the number of living insects was counted and the mortality was calculated.
# The test was made on three pots, and the average value was calculated. In Table 6, mark "A" indicates a mortality higher than 95%, mark "B" indicates a mortality of 80 to 95%, mark "C" indicates a mortality of 50 to 80%, and mark "D" indicates a mortality lower than 50%.
# tobacco cutworm [2] = test: Test 1: Effect on Tobacco Cutworm (leaf immersion), mortality after 24 hours; format: in vivo; conditions: second-instar larvae, 25° C
# Outline: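 Sweet-potato leaves dipped 10 s in emulsifiable concentrate diluted to 100 or 20 ppm, air-dried, then exposed to second-instar larvae at 25 °C. Mortality counted after 24 h, averaged over three cups.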
# two-spotted spider mite = test: Test 6: Effect on Two-Spotted Spider mite Adults; format: in vivo; conditions: Tetranychus urticae
# Procedure: as §1
# A kidney bean leaf disc perforated with a cork borer (15 mm in diameter) was placed on water-impregnated absorbent cotton (2 cm×2 cm), and 10 adults of two-spotted spider mite were set free. A chemical dilution having a concentration of 100 ppm was applied with an applicator in an amount of 3 ml.
# The leaf disc-placed absorbent cotton was placed in a thermostat chamber maintained at 25° C. After 24 hours, the number of killed adults was counted and the mortality was calculated. The test was made on three leaf discs and the average value was calculated.
# [3] = tested on: resistant green rice leafhopper (collected at Nakagawara); test: Test 3: Effect on Resistant Green Rice Leafhopper (collected at Nakagawara); format: in vivo, Nephotettix cincticeps Uhler (Green rice leafhopper); conditions: Nephotettix cincticeps, read-out: Mortality (%), Green Rice Leafhopper Collected at Nakagawara
# Outline: (§2)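 Emulsifiable concentrate diluted to 100 or 20 ppm was sprayed, 3 ml per pot, onto hydroponic rice seedlings at 2–3 leaves. After air-drying, 10 female adults of the Nakagawara (resistant) or Chigasaki (sensitive) strain were released per caged pot. Mortality was counted at 24 h and averaged over three pots.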
# [4] = tested on: sensitive green rice leafhopper (collected at Chigasaki); test: whole plant or invertebrate; format: in vivo; conditions: Nephotettix cincticeps, read-out: Mortality (%), Green Rice Leafhopper Collected at Chigasaki
# Outline: as §2
# diamond back moth = test: Test 4: Effect on Diamond Back Moth; format: in vivo; conditions: Plutella
# Outline: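 Compound formulated as an emulsifiable concentrate, diluted in water to 100 or 20 ppm and sprayed at 3 ml per cup onto cabbage leaves holding 10 third-instar larvae. Mortality counted after 24 hours; mean of three cups.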
# German cockroach = test: Test 7: Effect on German Cockroach; format: in vivo; conditions: Blattella germanica
# Outline: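 Petri dish floors were treated with 50 or 10 mg/m2 of compound (diluted emulsifiable concentrate) and air-dried. Ten male adult German cockroaches per dish were held at 25° C. Agonized and dead insects were counted after 24 hours, averaging two dishes.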
# tobacco cutworm [5] = test: Test 2: Tobacco Cutworm Larva Dipping Test, mortality after 24 hours; format: in vivo; conditions: 24 h
# Outline: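 Second- and fifth-instar larvae dipped 5 s in a water dilution of an emulsifiable concentrate at 100 or 20 ppm, blotted, then held on artificial diet at 25° C. Dead and living larvae counted after 24 hours; mortality averaged over three cups.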
# [6] = 100 ppm, adults, 24 hours, 25° C, read-out: Mortality (%)
# [7] = 20 ppm, sensitive female adults, 24 hours
# [8] = 100 ppm, sensitive female adults, 24 hours
# [9] = 20 ppm, third-instar larvae, 24 hours, read-out: Mortality (%)
# [10] = 100 ppm, third-instar larvae, 24 hours, read-out: Mortality (%)
# [11] = 10 mg/m^2, male adults, agonized and killed after 24 hours, read-out: Mortality (%)
# [12] = 50 mg/m^2, male adults, agonized and killed after 24 hours, read-out: Mortality (%)
# [13] = read-out: Motality (%), Fifth-Instar Larvae
# [14] = read-out: Motality (%), Second-Instar Larvae
Structure (SMILES),LC50 at 48 h (Test 8: Fish Toxicity),LD50 at 168 h [1],mortality at 100 ppm (green peach aphid),mortality at 100 ppm (two-spotted spider mite; [6]),mortality at 20 ppm ([3]; 24 h),mortality at 100 ppm ([3]; 24 h),"mortality at 20 ppm [4, 7]","mortality at 100 ppm [4, 8]",other results
CCC(C)(COCc1cccc(Oc2cccc(Cl)c2)c1)c1cccc(C)c1 (stereo not drawn) [Compound 29],> 10 µg/mL,> 500 mg/kg,80 to 95%,,,,,,
"C#CCOc1ccc(C(C)(C)COCc2cccc(Oc3ccccc3)c2)cc1 [Compound 98, 3-Phenoxybenzyl 2-(4-propargyloxyphenyl)-2-methylpropyl ether]",,> 500 mg/kg,,100%,,,,,mortality at 20 ppm (tobacco cutworm [2]): 100%; mortality at 100 ppm (tobacco cutworm [2]): 100%
"CSc1ccc(C(C)(C)COCc2cccc(Oc3ccccc3)c2)cc1 [Compound 24, 3-Phenoxybenzyl 2-(4-methylthiophenyl)-2-methylpropyl ether]",> 10 µg/mL,> 500 mg/kg,> 95%,,70%,100%,40%,100%,
"CCC(C)(COCc1cccc(Oc2ccccc2)c1)c1ccc(C)cc1 (stereo not drawn) [Compound 53, 3-Phenoxybenzyl 2-(4-methylphenyl)-2-ethylpropyl ether]",> 10 µg/mL,> 500 mg/kg,80 to 95%,,100%,100%,80%,100%,mortality at 20 ppm (diamond back moth; [9]): 100%; mortality at 100 ppm (diamond back moth; [10]): 100%
"CCC(C)(COCc1cccc(Oc2ccccc2)c1)c1ccc(Cl)c(Cl)c1 (stereo not drawn) [Compound 52, 3-Phenoxybenzyl 2-(3,4-dichlorophenyl)-2-ethylpropyl ether]",> 10 µg/mL,> 500 mg/kg,> 95%,,90%,100%,90%,100%,mortality at 20 ppm (diamond back moth; [9]): 90%; mortality at 100 ppm (diamond back moth; [10]): 100%; mortality at 10 mg/m2 (German cockroach; [11]): 90%; mortality at 50 mg/m2 (German cockroach; [12]): 100%
"CC(C)(COCc1cccc(Oc2cccc(Cl)c2)c1)c1ccc(OC(F)F)cc1 [Compound 25, 3-(3-Chlorophenoxy)benzyl 2-(4-difluoromethoxyphenyl)-2-methylpropyl ether]",,> 500 mg/kg,,90%,100%,100%,100%,100%,
"CCOCc1ccc(C(C)(C)COCc2cccc(Oc3ccccc3)c2)cc1 [Compound 82, 3-Phenoxybenzyl 2-(4-ethoxymethylphenyl)-2-methylpropyl ether]",,> 500 mg/kg,,90%,100%,100%,80%,100%,
Cc1ccc(C(C)(C)COCc2cccc(Oc3ccccc3)c2)cc1Cl [Compound 73],> 10 µg/mL,> 500 mg/kg,> 95%,,,,,,mortality at 20 ppm (tobacco cutworm [2]): 100%; mortality at 100 ppm (tobacco cutworm [2]): 100%; mortality at 20 ppm (diamond back moth; [9]): 90%; mortality at 100 ppm (diamond back moth; [10]): 100%; mortality at 10 mg/m2 (German cockroach; [11]): 100%; mortality at 50 mg/m2 (German cockroach; [12]): 100%
"CCCCCOc1ccc(C(C)(C)COCc2cccc(Oc3ccccc3)c2)cc1 [Compound 62, 3-Phenoxybenzyl 2-[4-(n-pentyloxy)phenyl]-2-methylpropyl ether]",> 1 µg/mL,> 500 mg/kg,80 to 95%,,,,,,mortality at 20 ppm (tobacco cutworm [2]): 80%; mortality at 100 ppm (tobacco cutworm [2]): 100%; mortality at 20 ppm (diamond back moth; [9]): 50%; mortality at 100 ppm (diamond back moth; [10]): 100%
"CC(C)(COCc1coc(Cc2ccccc2)c1)c1ccc(Cl)cc1 [Compound 12, 5-Benzyl-3-furylmethyl 2-(4-chlorophenyl)-2-methylpropyl ether]",> 10 µg/mL,> 500 mg/kg,80 to 95%,,,,,,
"CC(C)(COCc1cccc(Oc2ccccc2)c1)c1cc(Cl)cc(Cl)c1 [Compound 56, 3-Phenoxybenzyl 2-(3,5-dichlorophenyl)-2-methylpropyl ether]",,> 500 mg/kg,,80%,100%,100%,90%,100%,
"CCOc1ccc(C(C)(C)COCc2cccc(Oc3ccccc3)c2)cc1 [Compound 55, 3-Phenoxybenzyl 2-(4-ethoxyphenyl)-2-methylpropyl ether]",> 0.1 µg/mL,> 500 mg/kg,> 95%,,100%,100%,,,mortality at 20 ppm (tobacco cutworm [2]): 100%; mortality at 100 ppm (tobacco cutworm [2]): 100%; mortality at 20 ppm (diamond back moth; 24 h): 100%; mortality at 100 ppm (diamond back moth; 24 h): 100%; mortality at 20 ppm (tobacco cutworm [5]; [13]): 100%; mortality at 100 ppm (tobacco cutworm [5]; [13]): 100%; mortality at 20 ppm (tobacco cutworm [5]; [14]): 100%; mortality at 100 ppm (tobacco cutworm [5]; [14]): 100%; mortality at 20 ppm ([4]; 24 h): 100%; mortality at 100 ppm ([4]; 24 h): 100%; mortality at 10 mg/m2 (German cockroach; 24 h): 100%; mortality at 50 mg/m2 (German cockroach; 24 h): 100%
"CCC(C)(COCc1cccc(Oc2ccc(Br)cc2)c1)c1ccc(F)cc1 (stereo not drawn) [Compound 16, 3-(4-bromophenoxy)benzyl 2-(4-fluorophenyl)-2-ethylpropyl ether]",,> 500 mg/kg,,90%,100%,100%,90%,100%,
"COc1ccc(Oc2cccc(COCC(C)(C)c3ccc(SC)cc3)c2)cc1 [Compound 8, 3-(4-Methoxyphenoxy)benzyl 2-(4-methylthiophenyl)-2-methylpropyl ether]",> 10 µg/mL,> 500 mg/kg,80 to 95%,,,,,,
"CCOP(=S)(OCC)Oc1ccc(=O)n(-c2ccccc2)n1 [(d), O,O-diethyl-O-(3-oxo-2-phenyl-2H-pyridazin-6-yl)-phosphorothioate, reference compound]",,,,,,,,,"mortality at 100 ppm (two-spotted spider mite; 24 h): 40%; mortality at 20 ppm ([3]; 20 ppm, resistant female adults, 24 hours): 10%; mortality at 100 ppm ([3]; 100 ppm, resistant female adults, 24 hours): 20%; mortality at 20 ppm ([4]; 24 h): 40%; mortality at 100 ppm ([4]; 24 h): 90%; mortality at 10 mg/m2 (German cockroach; 24 h): 50%; mortality at 50 mg/m2 (German cockroach; 24 h): 100%"
"CC(C)(COCc1cccc(Sc2ccccc2)c1)c1ccc(Cl)cc1 [Compound 15, 3-Phenylthiobenzyl 2-(4-chlorophenyl)-2-methylpropyl ether]",> 10 µg/mL,> 500 mg/kg,80 to 95%,,90%,100%,70%,100%,
